Source: US20100099692A1, “HARMFUL ORGANISM CONTROL COMPOSITION” (priority 2007, published 2010)

test system: Bemisia tabaci imagoes; test: Test Example 1: cabbage leaf disc immersion test on Bemisia tabaci imagoes, controlling value after 4 days; type: in vivo; conditions: foliar, 96 h, compound I alone 400 ppm, cabbage leaf disc immersed 30 seconds

Compound	pest or weed control at 400 ppm
COC(=O)NNC(=O)c1cc(Cl)cc(C)c1NC(=O)c1cc(C(F)(F)F)nn1-c1ncccc1Cl [compound I-(5)]	100%
COC(=O)NNC(=O)c1cc(Cl)cc(C)c1NC(=O)c1cc(Br)nn1-c1ncccc1Cl [compound I-(34)]	100%
COC(=O)NNC(=O)c1cc(Br)cc(Br)c1NC(=O)c1cc(Br)nn1-c1ncccc1Cl [compound I-(68)]	95%
COC(=O)NNC(=O)c1cc(Cl)cc(Br)c1NC(=O)c1cc(Br)nn1-c1ncccc1Cl [compound I-(70)]	90%
COC(=O)NNC(=O)c1cc(Br)cc(C)c1NC(=O)c1cc(C(F)(F)F)nn1-c1ncccc1Cl [compound I-(74)]	100%
COC(=O)NN(C)C(=O)c1cc(Cl)cc(C)c1NC(=O)c1cc(Br)nn1-c1ncccc1Cl [compound I-(115)]	51%
COC(=O)NNC(=O)c1cc(C#N)cc(C)c1NC(=O)c1cc(Br)nn1-c1ncccc1Cl [compound I-(117)]	86%
COC(=O)N(C)N(C)C(=O)c1cc(Cl)cc(C)c1NC(=O)c1cc(Br)nn1-c1ncccc1Cl [compound I-(119)]	100%
COC(=O)N(C)N(C)C(=O)c1cc(Br)cc(Br)c1NC(=O)c1cc(Br)nn1-c1ncccc1Cl [compound I-(204)]	100%
COC(=O)N(C)NC(=O)c1cc(Br)cc(Br)c1NC(=O)c1cc(Br)nn1-c1ncccc1Cl [compound I-(213)]	100%

same assay, conditions: foliar, 96 h, compound X alone 1000 ppm, cabbage leaf disc immersed 30 seconds

Compound	pest or weed control at 1000 ppm
CC#CCOc1ncnc(N2CC(C)CC(C)C2)c1F (stereo not shown) [compound X, 4-(2-butynyloxy)-5-fluoro-6-(3,5-dimethylpiperidino)pyrimidine]	23%

test system: Bemisia tabaci imagoes; test: Test Example 2: cabbage leaf disc immersion test on Bemisia tabaci imagoes, controlling value after 2 days; type: in vivo; conditions: compound I-(138) alone 800 ppm, cabbage leaf disc immersed 30 seconds

Compound	Pest controlling value (%)
COC(=O)NN(C)C(=O)c1cc(C#N)cc(C)c1NC(=O)c1cc(Br)nn1-c1ncccc1Cl [compound I-(138)]	33%

same assay, conditions: compound X alone 2000 ppm, cabbage leaf disc immersed 30 seconds

Compound	Pest controlling value (%)
CC#CCOc1ncnc(N2CC(C)CC(C)C2)c1F (stereo not shown) [compound X, 4-(2-butynyloxy)-5-fluoro-6-(3,5-dimethylpiperidino)pyrimidine]	75%
